For test [1], the target named is T1, Aminopeptidase N (Plasmodium falciparum FcB1/Columbia, UniProt O96935).
T1 sequence (O96935 whole entry): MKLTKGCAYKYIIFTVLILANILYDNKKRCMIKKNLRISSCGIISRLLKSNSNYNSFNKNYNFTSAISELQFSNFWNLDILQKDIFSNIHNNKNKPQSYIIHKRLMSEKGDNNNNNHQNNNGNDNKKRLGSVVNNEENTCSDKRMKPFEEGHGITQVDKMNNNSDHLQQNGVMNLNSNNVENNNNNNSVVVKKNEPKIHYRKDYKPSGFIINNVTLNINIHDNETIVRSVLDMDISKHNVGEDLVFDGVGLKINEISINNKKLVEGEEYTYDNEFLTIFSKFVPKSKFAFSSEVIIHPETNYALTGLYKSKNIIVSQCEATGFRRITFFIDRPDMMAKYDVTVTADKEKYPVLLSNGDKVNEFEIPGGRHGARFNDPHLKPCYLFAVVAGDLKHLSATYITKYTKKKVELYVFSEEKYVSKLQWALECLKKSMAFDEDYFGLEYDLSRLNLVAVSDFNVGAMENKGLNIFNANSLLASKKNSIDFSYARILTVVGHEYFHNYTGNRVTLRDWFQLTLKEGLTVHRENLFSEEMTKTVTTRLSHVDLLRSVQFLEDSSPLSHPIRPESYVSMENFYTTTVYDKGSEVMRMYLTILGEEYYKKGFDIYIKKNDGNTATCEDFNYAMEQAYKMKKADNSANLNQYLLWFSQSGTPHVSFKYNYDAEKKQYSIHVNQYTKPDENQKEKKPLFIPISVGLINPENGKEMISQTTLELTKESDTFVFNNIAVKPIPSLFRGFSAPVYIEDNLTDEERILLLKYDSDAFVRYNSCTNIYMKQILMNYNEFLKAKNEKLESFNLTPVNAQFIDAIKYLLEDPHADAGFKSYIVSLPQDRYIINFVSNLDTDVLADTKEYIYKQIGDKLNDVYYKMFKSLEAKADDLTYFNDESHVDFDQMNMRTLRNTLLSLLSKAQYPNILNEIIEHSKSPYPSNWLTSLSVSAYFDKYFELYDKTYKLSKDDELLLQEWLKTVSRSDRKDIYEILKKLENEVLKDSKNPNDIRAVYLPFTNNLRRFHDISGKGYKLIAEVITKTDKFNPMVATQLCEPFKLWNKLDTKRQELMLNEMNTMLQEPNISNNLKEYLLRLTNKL
The test can be described thus: malaria alanyl aminopeptidase activity blockers – biochemical, fluorogenic H-Leu-NHMec substrate, 1536-well (AID 1445). More on the design: species or system Plasmodium falciparum 3D7, 3D7.

Test [2] is described as follows: antiviral protection against BTV-induced cell death – arbovirus, BSR cells, confirmation (AID 1250).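 Also: protection from viral cytopathic effect measured as cell viability by ATP luminescence.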 The format is functional.
Test [3] concerns the target NS3 (Hepatitis C virus, UniProt A3EZJ3). The test is described as follows: PubChem AID 2173. More on the design: species or system Hepacivirus hominis.
In test [4] the target is T2, Short transient receptor potential channel 4 (Mus musculus, UniProt Q9QUQ5).
T2 sequence (Q9QUQ5 whole entry): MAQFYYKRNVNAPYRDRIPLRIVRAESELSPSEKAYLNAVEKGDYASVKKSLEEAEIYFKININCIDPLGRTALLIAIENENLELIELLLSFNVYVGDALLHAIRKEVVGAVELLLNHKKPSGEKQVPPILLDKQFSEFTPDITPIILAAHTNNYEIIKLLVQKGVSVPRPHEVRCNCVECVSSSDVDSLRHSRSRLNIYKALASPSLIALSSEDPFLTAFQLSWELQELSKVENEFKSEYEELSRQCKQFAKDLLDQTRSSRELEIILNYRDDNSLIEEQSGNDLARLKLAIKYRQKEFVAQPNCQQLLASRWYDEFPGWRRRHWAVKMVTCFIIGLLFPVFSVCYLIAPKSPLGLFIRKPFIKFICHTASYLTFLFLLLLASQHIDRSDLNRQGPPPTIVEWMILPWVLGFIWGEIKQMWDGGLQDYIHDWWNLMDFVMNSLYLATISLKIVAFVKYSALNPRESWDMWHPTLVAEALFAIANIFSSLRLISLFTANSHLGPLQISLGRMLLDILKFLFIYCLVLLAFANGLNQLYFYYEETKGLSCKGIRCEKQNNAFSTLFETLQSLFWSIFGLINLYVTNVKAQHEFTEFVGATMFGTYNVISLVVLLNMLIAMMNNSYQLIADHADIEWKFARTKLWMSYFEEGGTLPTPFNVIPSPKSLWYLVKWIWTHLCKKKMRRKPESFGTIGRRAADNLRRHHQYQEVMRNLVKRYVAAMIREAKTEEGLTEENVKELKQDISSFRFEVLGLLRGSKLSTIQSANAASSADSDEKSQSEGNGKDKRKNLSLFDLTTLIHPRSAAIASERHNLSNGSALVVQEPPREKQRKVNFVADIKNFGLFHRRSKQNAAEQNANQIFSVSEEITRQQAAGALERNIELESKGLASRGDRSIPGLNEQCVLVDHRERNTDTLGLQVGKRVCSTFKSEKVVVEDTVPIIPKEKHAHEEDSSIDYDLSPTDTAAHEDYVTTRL
The test is described as follows: calcium entry via TRPC4 opening agents – cell-based, HEK293 TRPC4/mu-opioid, Fluo-4 calcium, dose response (AID 434937). In kind it is functional.

Test [5] deals with Lysosomal acid glucosylceramidase (Homo sapiens, UniProt P04062). The test can be described thus: Dose response cell-based high throughput screening assay to identify enhancers of beta-glucosidase activity. [Related pubchem assays: 784 ]. The format is functional.
Chain of Lysosomal acid glucosylceramidase (P04062 whole entry): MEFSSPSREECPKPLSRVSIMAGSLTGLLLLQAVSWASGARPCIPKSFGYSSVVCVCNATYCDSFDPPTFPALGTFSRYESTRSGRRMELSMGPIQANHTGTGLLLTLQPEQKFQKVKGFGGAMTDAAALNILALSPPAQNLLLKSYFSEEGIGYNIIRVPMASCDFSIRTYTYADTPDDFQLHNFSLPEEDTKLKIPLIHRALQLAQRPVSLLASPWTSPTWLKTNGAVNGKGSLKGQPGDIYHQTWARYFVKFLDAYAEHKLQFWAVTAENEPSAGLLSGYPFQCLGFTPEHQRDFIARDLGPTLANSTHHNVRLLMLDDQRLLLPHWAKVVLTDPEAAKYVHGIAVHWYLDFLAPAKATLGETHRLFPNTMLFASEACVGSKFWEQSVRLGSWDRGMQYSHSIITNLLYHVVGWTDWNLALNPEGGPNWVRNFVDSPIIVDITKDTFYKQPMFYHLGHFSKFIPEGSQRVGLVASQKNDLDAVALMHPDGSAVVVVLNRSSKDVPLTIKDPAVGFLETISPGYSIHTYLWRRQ
The target of test [6] is Acyl-homoserine lactone acylase PvdQ (Pseudomonas aeruginosa (strain LESB58), UniProt Q9I194). The test is described as follows: PvdQ acylase enzyme activity blockers – biochemical, fluorescence, plate reader and imaging, cherry-picks, dose response (AID 493231).
Chain of Acyl-homoserine lactone acylase PvdQ (Q9I194 24-193 limits assumed): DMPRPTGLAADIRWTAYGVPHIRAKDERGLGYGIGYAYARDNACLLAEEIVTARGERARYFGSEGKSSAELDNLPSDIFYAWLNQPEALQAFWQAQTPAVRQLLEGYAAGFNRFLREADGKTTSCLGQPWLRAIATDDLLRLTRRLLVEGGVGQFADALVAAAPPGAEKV
Chain of Acyl-homoserine lactone acylase PvdQ (Q9I194 217-762 limits assumed): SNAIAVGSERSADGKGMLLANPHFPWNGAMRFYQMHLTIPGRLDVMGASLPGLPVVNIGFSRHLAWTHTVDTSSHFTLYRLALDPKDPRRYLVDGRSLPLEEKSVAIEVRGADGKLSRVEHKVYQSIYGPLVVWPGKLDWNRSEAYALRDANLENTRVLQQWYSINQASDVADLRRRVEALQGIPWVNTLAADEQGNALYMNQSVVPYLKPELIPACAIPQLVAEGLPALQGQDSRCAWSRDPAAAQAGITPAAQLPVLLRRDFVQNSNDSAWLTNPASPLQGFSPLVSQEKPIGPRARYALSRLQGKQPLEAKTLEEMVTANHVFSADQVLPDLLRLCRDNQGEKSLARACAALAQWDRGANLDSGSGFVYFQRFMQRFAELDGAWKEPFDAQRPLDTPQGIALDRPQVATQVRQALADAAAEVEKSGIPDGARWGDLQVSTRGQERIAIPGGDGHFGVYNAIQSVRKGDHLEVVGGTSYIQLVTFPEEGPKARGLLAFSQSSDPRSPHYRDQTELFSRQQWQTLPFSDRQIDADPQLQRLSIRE
Test [7] has as its target Luciferin 4-monooxygenase (Photinus pyralis, UniProt P08659). The test can be described thus: In vitro luciferase assay using purified luciferase. [Related pubchem assays: 1299, 1270, 1295, 1375, 1287, 1281, 1293, 1291, 1289, 1280, 465, 1364, 1282, 1372, 1365, 1370, 1367, 1366, 1266, 1373, 1292, 1290, 1302, 1371, 1283, 1271, 1294, 1374, 1368, 1369 ].
In test [8] the test system is HEK293. The test is described as follows: PMA/Ionomycin-induced IL-8 production in HEK293- NF-kB-Luc stable cells. [Related pubchem assays: 1299, 1295, 1375, 1287, 1281, 1293, 1291, 1289, 1280, 465, 1364, 1282, 1372, 1365, 1367, 1366, 1266, 1269, 1373, 1292, 1290, 1302, 1371, 1283, 1271, 1294, 1374, 1368, 1369 ]. In kind it is functional, cell-based. The note with it: Homo sapiens.

Test [9] deals with HEK293. The test can be described thus: PMA/Ionomycin induced NF-kB luciferase assay in 293- NF-kB-Luc stable cells. [Related pubchem assays: 1299, 1270, 1295, 1375, 1287, 1281, 1293, 1291, 1289, 1280, 465, 1364, 1282, 1372, 1365, 1370, 1367, 1366, 1269, 1373, 1292, 1290, 1302, 1371, 1283, 1271, 1294, 1374, 1368, 1369 ]. The note with it: Homo sapiens. The format is functional, cell-based.

Test [10] deals with HEK293. The test can be described thus: TNF Induced NF-kB Luciferase in 293-NF-kB-Luc Stable Cells. [Related pubchem assays: 1266, 1299, 1269, 1373, 1292, 1290, 1302, 1371, 1283, 1270, 1295, 1271, 1375, 1294, 1374, 1281, 1293, 1291, 1289, 1280, 465, 1368, 1364, 1282, 1372, 1365, 1369, 1370, 1367, 1366 ]. The format is functional, cell-based. The note with it: Homo sapiens.
Test [11] relates to HEK293. The test can be described thus: Cytotoxicity assay in HEK293 cells. [Related pubchem assays (depositor defined):AID1266, AID1269, AID1270, AID1271, AID1280, AID1281, AID1282, AID1283, AID1287, AID1289, AID1290, AID1291, AID1292, AID1293, AID1294, AID1295, AID1299, AID1302, AID1364, AID1365, AID1366, AID1367, AID1369, AID1370, AID1371, AID1372, AID1373, AID1374, AID1375, AID1384 …. The format is functional, cell-based. The note with it: Homo sapiens.

The source made the active and inactive calls.

Chain of NS3 (A3EZJ3 whole entry): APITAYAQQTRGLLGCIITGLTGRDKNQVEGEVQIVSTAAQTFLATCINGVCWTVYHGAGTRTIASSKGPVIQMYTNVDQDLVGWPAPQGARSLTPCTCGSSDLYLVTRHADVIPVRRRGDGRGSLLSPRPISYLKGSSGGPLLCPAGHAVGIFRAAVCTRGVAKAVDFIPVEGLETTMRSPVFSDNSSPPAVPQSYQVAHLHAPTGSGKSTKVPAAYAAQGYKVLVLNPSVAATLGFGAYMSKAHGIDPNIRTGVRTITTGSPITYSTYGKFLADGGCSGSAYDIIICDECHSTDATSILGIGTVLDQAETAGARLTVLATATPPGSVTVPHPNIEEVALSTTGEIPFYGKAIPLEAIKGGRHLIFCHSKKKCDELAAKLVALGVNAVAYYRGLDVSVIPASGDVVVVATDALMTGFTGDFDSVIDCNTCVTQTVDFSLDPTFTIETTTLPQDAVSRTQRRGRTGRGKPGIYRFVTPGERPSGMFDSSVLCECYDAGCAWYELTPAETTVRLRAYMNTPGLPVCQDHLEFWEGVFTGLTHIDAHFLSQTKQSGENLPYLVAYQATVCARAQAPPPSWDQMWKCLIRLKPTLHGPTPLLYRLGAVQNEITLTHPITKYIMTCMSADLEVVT
Chain of Luciferin 4-monooxygenase (P08659 whole entry): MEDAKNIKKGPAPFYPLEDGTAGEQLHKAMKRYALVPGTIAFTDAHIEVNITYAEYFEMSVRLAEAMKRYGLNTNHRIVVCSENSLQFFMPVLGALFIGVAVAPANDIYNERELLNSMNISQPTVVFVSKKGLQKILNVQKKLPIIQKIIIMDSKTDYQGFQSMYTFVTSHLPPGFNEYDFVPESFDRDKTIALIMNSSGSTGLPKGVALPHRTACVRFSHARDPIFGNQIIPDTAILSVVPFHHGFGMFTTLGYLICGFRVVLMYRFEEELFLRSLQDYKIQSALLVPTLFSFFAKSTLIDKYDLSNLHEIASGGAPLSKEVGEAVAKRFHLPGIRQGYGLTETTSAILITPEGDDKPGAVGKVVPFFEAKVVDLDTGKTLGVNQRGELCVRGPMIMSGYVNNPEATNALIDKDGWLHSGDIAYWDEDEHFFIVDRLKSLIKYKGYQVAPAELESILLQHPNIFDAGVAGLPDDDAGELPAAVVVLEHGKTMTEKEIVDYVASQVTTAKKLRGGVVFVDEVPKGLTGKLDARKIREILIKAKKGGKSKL

In the case of `CS(=O)(=O)C1=NSC2=NC(=O)/C(=C\c3ccc(-c4ccccc4)o3)C(=N)N21`, the half-maximal inhibitory concentration (IC50) – broadly, the midpoint of a concentration-inhibition curve – in test [1] was 71.1 µM (active); in test [2], 36 µM (active).
In the case of `Cc1occc1C(=O)NNC(=S)NC(=O)COc1ccc(Cl)cc1Cl`, the half-maximal inhibitory concentration (IC50) in test [3] is given as 15.2 µM (not active). In test [4], the concentration giving a half-maximal response (EC50) (as a rule, the concentration at which the effect is half-maximal) was 5.96 µM (active).
In the case of `C=CCSC1=N/C(=C\c2ccsc2)C(=O)S1`, in test [5], the EC50 is given as > 50 µM (not active).
`N#CC(c1ccc(Cl)cc1)c1ccc(Cl)nn1` (stereo unspecified): the AC50 (as a rule, the midpoint of the concentration-response curve, whichever way the signal moves) in test [6] is 0.991 µM (active).
For `COc1cc(NC(=O)c2cccc3c2C(=O)N(Cc2cccnc2)C3)cc(OC)c1OC`, the EC50 is > 8 µM (not active) in test [7]; 13.9 µM (not active) in test [8]; 0.744 µM (active) in test [9]; > 8 µM (not active) in test [10]; > 8 µM (inactive) in [11].
